Reference: PubChem BioAssay AID330 (DTP/NCI, 2004)
Where “and” joins values, the source holds several entries; their conditions need not be identical. Equal values may be shown once. Toxic doses and inconclusive results are not listed.

System: P388 leukemia ip, CD2F1 mice, survival T/C
Assay: NCI In Vivo Anticancer Drug Screen. Data for tumor model P388 Leukemia (intraperitoneal) in CD2F1 (CDF1) mice
Conditions: endpoint: median survival time, higher = longer survival
In short: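 Mice carrying the transplanted tumor received test compound or vehicle. Survival was recorded in each group, and the value is the treated-group measurement divided by that of the vehicle-treated control group.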

With COc1ccc(CC2C(=O)NC(C)C(=O)N(C)C3Cc4ccc(cc4)Oc4cc(ccc4O)CC(C(=O)NC(C)C(=O)NC(C)C(=O)N2C)N(C)C3=O)cc1 (stereo unspecified) the T/C (dose: 0.19 mg/kg/injection, schedule: Q03HX024 (ip), vehicle: other) was 156 % of control, the T/C (dose: 0.38 mg/kg/injection, schedule: Q03HX024 (ip), vehicle: other) was 171 % of control and the T/C (dose: 0.45 mg/kg/injection, schedule: Q01DX005 (iv), vehicle: other) was 108 % of control. The T/C (dose: 0.5 mg/kg/injection, schedule: Q01DX009 (ip), vehicle: other) was 161 % of control, the T/C (dose: 0.75 mg/kg/injection, schedule: Q03HX024 (ip), vehicle: other) was 167 % of control and the T/C (dose: 0.9 mg/kg/injection, schedule: Q01DX005 (ip), vehicle: other) was 166 % of control. For the same compound, the T/C (dose: 0.9 mg/kg/injection, schedule: Q01DX005 (iv), vehicle: other) was 96 % of control, the T/C (dose: 1.0 mg/kg/injection, schedule: Q01DX009 (ip), vehicle: other) was 172 % of control and the T/C (dose: 1.0 mg/kg/injection, schedule: Q01DX009 (ip), vehicle: saline with Tween-80) was 163 % of control. For the same compound, the T/C (dose: 1.13 mg/kg/injection, schedule: Q01DX001 (iv), vehicle: other) was 103 % of control, the T/C (dose: 1.13 mg/kg/injection, schedule: Q03HX008 (ip), vehicle: other) was 162 % of control and the T/C (dose: 1.5 mg/kg/injection, schedule: Q04DX003 (ip), vehicle: other) was 157 % of control. The T/C (dose: 1.8 mg/kg/injection, schedule: Q01DX005 (ip), vehicle: other) was 173 % of control, the T/C (dose: 1.8 mg/kg/injection, schedule: Q01DX005 (iv), vehicle: other) was 99 % of control and the T/C (dose: 2.0 mg/kg/injection, schedule: Q01DX009 (ip), vehicle: other) was 192 % of control. The T/C (dose: 2.0 mg/kg/injection, schedule: Q01DX009 (ip), vehicle: saline with Tween-80) was 152 % of control and 159 % of control, the T/C (dose: 2.0 mg/kg/injection, schedule: Q01DX009 (oral), vehicle: other) was 105 % of control and the T/C (dose: 2.25 mg/kg/injection, schedule: Q01DX001 (iv), vehicle: other) was 105 % of control. For the same compound, the T/C (dose: 3.0 mg/kg/injection, schedule: Q04DX003 (ip), vehicle: other) was 152 % of control, the T/C (dose: 3.6 mg/kg/injection, schedule: Q01DX005 (ip), vehicle: other) was 163 % of control and the T/C (dose: 3.6 mg/kg/injection, schedule: Q01DX005 (iv), vehicle: other) was 116 % of control. For the same compound, the T/C (dose: 4.0 mg/kg/injection, schedule: Q01DX009 (ip), vehicle: other) was 193 % of control, the T/C (dose: 4.0 mg/kg/injection, schedule: Q01DX009 (ip), vehicle: saline with Tween-80) was 174 % of control and 186 % of control and the T/C (dose: 4.0 mg/kg/injection, schedule: Q01DX009 (oral), vehicle: other) was 103 % of control. For the same compound, the T/C (dose: 4.5 mg/kg/injection, schedule: Q01DX001 (iv), vehicle: other) was 111 % of control, the T/C (dose: 6.0 mg/kg/injection, schedule: Q04DX003 (ip), vehicle: other) was 163 % of control and the T/C (dose: 7.2 mg/kg/injection, schedule: Q01DX005 (ip), vehicle: other) was 182 % of control. The T/C (dose: 7.2 mg/kg/injection, schedule: Q01DX005 (iv), vehicle: other) was 153 % of control, the T/C (dose: 8.0 mg/kg/injection, schedule: Q01DX009 (ip), vehicle: other) was 233 % of control and the T/C (dose: 8.0 mg/kg/injection, schedule: Q01DX009 (ip), vehicle: saline with Tween-80) was 155 % of control. The T/C (dose: 8.0 mg/kg/injection, schedule: Q01DX009 (oral), vehicle: other) was 96 % of control, the T/C (dose: 9.0 mg/kg/injection, schedule: Q01DX001 (iv), vehicle: other) was 123 % of control and the T/C (dose: 12.0 mg/kg/injection, schedule: Q04DX003 (ip), vehicle: other) was 153 % of control. For the same compound, the T/C (dose: 16.0 mg/kg/injection, schedule: Q01DX009 (oral), vehicle: other) was 97 % of control and the T/C (dose: 32.0 mg/kg/injection, schedule: Q01DX009 (oral), vehicle: other) was 94 % of control.
CCOc1ccc(N=Nc2ccc(N)cc2N)cc1 was tested, and the T/C (dose: 100.0 mg/kg/injection, schedule: Q01DX009 (ip), vehicle: Klucel (hydroxypropylcellulose) (HPC)) was 118 % of control, the T/C (dose: 200.0 mg/kg/injection, schedule: Q01DX009 (ip), vehicle: Klucel (hydroxypropylcellulose) (HPC)) was 100 % of control and the T/C (dose: 400.0 mg/kg/injection, schedule: Q01DX009 (ip), vehicle: Klucel (hydroxypropylcellulose) (HPC)) was 93 % of control.
In the case of O=c1cc(NC2OC(CO)C(O)C(O)C2O)[nH]c(=O)[nH]1 (stereo unspecified), the T/C (dose: 60.0 mg/kg/injection, schedule: Q01DX005 (ip), vehicle: saline with Tween-80) is reported as 96 % of control, the T/C (dose: 120.0 mg/kg/injection, schedule: Q01DX005 (ip), vehicle: saline with Tween-80) is reported as 102 % of control and the T/C (dose: 240.0 mg/kg/injection, schedule: Q01DX005 (ip), vehicle: saline with Tween-80) is reported as 104 % of control.
